The source of these data is PubChem BioAssay AID256 (DTP/NCI, 2004).

Toxic doses and inconclusive results are not listed.

The test deals with CD2F1 mice, L1210 leukemia ip, survival T/C. The test can be described thus: NCI In Vivo Anticancer Drug Screen. Data for tumor model L1210 Leukemia (intraperitoneal) in CD2F1 (CDF1) mice. The settings on record: higher = longer survival. The procedure, abridged: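 Compound-dosed mice with transplantable tumor versus matched vehicle controls; endpoint ratio T/C reported.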

As for `c1ccc(-c2n[nH]c3ccccc23)cc1`, the T/C is 100 % of control (endpoint: median survival time, dose: 50.0 mg/kg/injection, schedule: Q04DX002 (ip), vehicle: saline with Tween-80); 100 % of control (endpoint: median survival time, dose: 100.0 mg/kg/injection, schedule: Q04DX002 (ip), vehicle: saline with Tween-80); 100 % of control (endpoint: median survival time, dose: 200.0 mg/kg/injection, schedule: Q04DX002 (ip), vehicle: saline with Tween-80).

As to `NCc1cccn1OCc1ccccc1`, the T/C is, setting by setting: (endpoint: mean survival time, dose: 25.0 mg/kg/injection, schedule: Q01DX009 (ip), vehicle: Klucel (hydroxypropylcellulose) (HPC)) 96 % of control; (endpoint: mean survival time, dose: 50.0 mg/kg/injection, schedule: Q01DX009 (ip), vehicle: Klucel (hydroxypropylcellulose) (HPC)) 96 % of control; (endpoint: mean survival time, dose: 100.0 mg/kg/injection, schedule: Q01DX009 (ip), vehicle: Klucel (hydroxypropylcellulose) (HPC)) 107 % of control.

Turning to `Cc1cn(C2CC3OP(N(C)C)OCC3O2)c(=O)[nH]c1=O` (stereo not given), the T/C is 100 % of control (endpoint: mean survival time, dose: 12.5 mg/kg/injection, schedule: Q01DX005 (ip), vehicle: water); 101 % of control (endpoint: mean survival time, dose: 25.0 mg/kg/injection, schedule: Q01DX005 (ip), vehicle: water); 98 % of control (endpoint: mean survival time, dose: 50.0 mg/kg/injection, schedule: Q01DX005 (ip), vehicle: water); 105 % of control (endpoint: mean survival time, dose: 100.0 mg/kg/injection, schedule: Q01DX005 (ip), vehicle: water); 101 % of control (endpoint: mean survival time, dose: 200.0 mg/kg/injection, schedule: Q01DX005 (ip), vehicle: water).

With `CCCCCCCCCCCCCC[N+](C)(C)CC#CC[N+](C)(C)CCCCCCCCCCCCCC`, the T/C was 104 % of control (endpoint: mean survival time, dose: 25.0 mg/kg/injection, schedule: Q04DX002 (ip), vehicle: saline with Tween-80) and 89 % of control (endpoint: mean survival time, dose: 50.0 mg/kg/injection, schedule: Q04DX002 (ip), vehicle: saline with Tween-80).

As to `Cc1ccc(CS(=O)(=O)C(Cl)(Cl)c2ccc(C)cc2)cc1`, the T/C (endpoint: mean survival time, dose: 100.0 mg/kg/injection, schedule: Q04DX003 (ip), vehicle: Klucel (hydroxypropylcellulose) (HPC)) is 94 % of control; the T/C (endpoint: mean survival time, dose: 200.0 mg/kg/injection, schedule: Q04DX003 (ip), vehicle: Klucel (hydroxypropylcellulose) (HPC)) was 100 % of control; the T/C (endpoint: mean survival time, dose: 400.0 mg/kg/injection, schedule: Q04DX003 (ip), vehicle: Klucel (hydroxypropylcellulose) (HPC)) was 94 % of control.

With `OCCOc1ccc2ccccc2c1-c1c(OCCOc2ccc3ccccc3c2-c2c(OCCO)ccc3ccccc23)ccc2ccccc12`, the T/C (endpoint: mean survival time, dose: 25.0 mg/kg/injection, schedule: Q01DX001 (ip), vehicle: saline with Tween-80) is 95 % of control; the T/C (endpoint: mean survival time, dose: 50.0 mg/kg/injection, schedule: Q01DX001 (ip), vehicle: saline with Tween-80) was 91 % of control; the T/C (endpoint: mean survival time, dose: 100.0 mg/kg/injection, schedule: Q01DX001 (ip), vehicle: saline with Tween-80) is 86 % of control; the T/C (endpoint: mean survival time, dose: 400.0 mg/kg/injection, schedule: Q01DX001 (ip), vehicle: saline with Tween-80) was 86 % of control.

On to `C=CCNC(=O)c1ccc[n+](CC(=O)Nc2ccccc2)c1`, for which the T/C (endpoint: mean survival time, dose: 100.0 mg/kg/injection, schedule: Q04DX003 (ip), vehicle: saline with Tween-80) was 103 % of control.

In the case of `CN(CC(=O)C(C)(C)C)C1CCCCC1`, the T/C (endpoint: mean survival time, dose: 100.0 mg/kg/injection, schedule: Q04DX003 (ip), vehicle: saline) is 91 % of control.

As to `S=C(S)NCCNC(=S)S`, the T/C is, setting by setting: (endpoint: mean survival time, dose: 100.0 mg/kg/injection, schedule: Q01DX009 (ip), vehicle: saline) 102 % of control; (endpoint: mean survival time, dose: 200.0 mg/kg/injection, schedule: Q01DX009 (ip), vehicle: saline) 100 % of control; (endpoint: mean survival time, dose: 400.0 mg/kg/injection, schedule: Q01DX009 (ip), vehicle: saline) 90 % of control.
